The record followed here is US7655392B2, “Quenching methods for red blood cell inactivation process” (priority 2004, dated 2010).

The series relates to red blood cells. To be noted: sample 6: 0.2 mM GSH+2 eq base, no PIC-1. An excerpt: Methods for determining ATP, 2,3-DPG, glucose, hemoglobin, hemolysis, and potassium are available in the art. See for example, Davey et al., Transfusion, 32:525-528 (1992), the disclosure of which is incorporated herein. Methods for determining red blood cell function are also described in Greenwalt et al., Vox Sang, 58:94-99 (1990); Hogman et al., Vox Sang, 65:271-278 (1993); and Beutler et al., Blood, Vol. 59 (1982) the disclosures of which are incorporated herein by reference. For example, intracellular ATP and intracellular 2,3-DPG are measured using a Sigma ATP kit or 2,3-DPG kit (Sigma, St. Louis, Mo.). The ATP kit is used following Sigma procedure No. 366-UV, the disclosure of which is hereby incorporated by reference. […] The extracellular pH is measured by centrifuging the cells at 4° C. for 15 minutes at 12,000×g and removing the supernatant, for which the pH is measured using a standard pH meter at room temperature (e.g. Beckman, Epoxy Calomel electrode). For the intracellular pH, the remaining pellet is capped in the centrifuge tube and stored at about −80° C. for at least 2 hours. This is then lysed by the addition of deionized water. […] Measurements can be made shortly after treatment and as a function of post treatment storage, for example storage for up to 42 days.
Full units of red cell concentrates (Interstate Blood Bank, Inc., Memphis, Tenn.) were leukoreduced. A volume of 200 mL of this RCC (80% hematocrit) was mixed with 94 mL of Erythrosol or 100 mL of Adsol (Baxter Healthcare Corp., Deerfield, Ill.) as control (unit 1). A volume of 20 mL 8% dextrose was used to dissolve PIC-1 (mg) and acid glutathione (mg) and added to one unit to provide 0.2 mM PIC-1 and 2 mM glutathione (unit 2). […] For the glutathione, 1.2 mL of 10 N NaOH was added (2 equivalents). The PIC-1 was mixed with the unit, followed 1 minute later (unit 3) or 5 minutes later (unit 4) by glutathione. For unit 5, neutralized glutathione was mixed first, followed 10 minutes later by the PIC-1. […] All units were mixed by grasping the ends of the blood bag and mixing in a FIG. 8 motion 30 times. These were then incubated at room temperature for 20 hours total. A compound adsorption device (CAD), comprising a polymeric resin contained within a mesh pouch, was used for all but the control sample. This device is intended to remove residual PIC-1, PIC-1 breakdown products, and glutathione from the samples. Samples were incubated for 8 hours, then transferred to a second blood bag containing the CAD and incubated for an additional 12 hours. Following the room temperature incubation, samples were transferred to a refrigerator (4° C.) and stored up to 43 days. Aliquots were removed from each unit 12 hours and 20 hours post mixing, and every week thereafter. Aliquots were analyzed for total hemoglobin, pH, intracellular ATP, plasma hemoglobin, potassium, extracellular glucose and extracellular lactate.

Where two headings read alike, the source gives them in different places.

`N[C@@H](CCC(=O)N[C@@H](CS)C(=O)NCC(=O)O)C(=O)O` [glutathione, γ-L-glutamyl-L-cysteinyl-glycine]: the “Percent Hemolysis” value by setting is: (16B day 0) 0.15%; (16B day 0.5) 0.19%; (16B day 0.8) 0.51%; (16B day 7) 0.58%; (16B day 14) 0.61%; (16B day 22) 0.60%. Also, the “Percent Hemolysis” value runs as follows: (16B day 28) 0.71%; (16B day 35) 0.70%; (16B day 43) 0.75%.
